{"source": "patent US20060039911A1", "about": "“Method for the treatment of gastroesophageal reflux disease” (Aphton Corporation, priority 1998, published 2006)", "key": {"[1]": {"test_system": "pH of the stomach contents", "test": "pH of the stomach contents of treated pigs", "format": "in vivo", "excerpt": "FIG. 1 illustrates experimental data concerning the percentage of time that the gastric contents remain above pH 3 in different groups of pigs treated with ranitidine (4 animals), omeprazole (5 animals) and hG17(1-9) (4 animals), as compared to six (6) control animals.\nFIG. 2 illustrates the percentage of time that the gastric contents remain above pH 4 in a group of untreated (control) pigs […] and groups of pigs treated with human gastrin 17(1-9)Ser9-Diphtheria […] (4 animals), ranitidine (4 animals) and omeprazole (5 animals) as described in FIG. 1.\nFIG. 3 depicts the baseline median pH of the gastric contents of a group of six (6) untreated (control) pigs and groups of four (4) pigs treated with human G17(1-9)Ser9-Diphtheria Toxoid, […] pigs with ranitidine and five (5) pigs with omeprazole as described in FIG. 1.\nIn the following Examples, the anti G17 immunogenic composition, 150 mg ranitidine and 60 mg omeprazole were administered to pigs and the resulting changes in the pH of the stomach contents before and after treatment were measured. Specifically, following the stomach pH measurements of the untreated control state of each pig, the stomach pH of the same pigs was measured after the animals were treated with either ranitidine, or composition of human gastrin 17(1-9)-h(G 17)ser9-Diphtheria Toxoid (Gastrimmune), or omeprazole administered individually and at different times in each of four animals (pigs)."}, "[2]": {"target": "gastrin-17 (Homo sapiens, UniProt P01350)", "test": "Serum anti-gastrin antibody response of Gastrimmune-immunized mice (ELISA)", "format": "in vivo", "excerpt": "Gastrin neutralization was achieved by using the immunological composition Gastrimmune which is composed of the amino terminal domain of gastrin-17 linked, via an amino acid or peptide spacer to diphtheria toxoid which acts as the immunogenic carrier.\nSerum antibody titers rose within 2 weeks of the initial immunization to levels with an antigen binding capacity of >10^−9M. The presence of anti-gastrin antibodies within the serum of Gastrimmune-immunized mice was confirmed by using an ELISA. As expected, no bound gastrin levels were detected in animals immunized with control immunogen."}, "[3]": {"test_system": "parietal cell", "conditions": "meal-induced gastric acid secretion; cited from earlier work"}, "[4]": {"test_system": "GERD patients", "conditions": "cited from earlier work"}, "[5]": {"conditions": "400-800 mg cimetidine and 150-300 mg ranitidine twice daily"}}}
{"compound": "human gastrin 17(1-9)-h(G 17)ser9-Diphtheria Toxoid [Gastrimmune]", "values": [{"measurement": "inhibition of acid output from the stomach", "setting": "[1]", "value": "inhibited stomach acid output at a level of effectiveness between ranitidine and omeprazole"}, {"measurement": "time that the gastric contents remain above pH 3", "setting": "[1]; FIG. 1, 150 mg ranitidine, 60 mg omeprazole", "value": "for a longer period of time than in the pigs treated with ranitidine"}, {"measurement": "time that the gastric contents remain above pH 4", "setting": "[1]; FIG. 2, 150 mg ranitidine, 60 mg omeprazole", "value": "for a longer period of time than in the pigs treated with ranitidine"}, {"measurement": "median pH of the stomach contents", "setting": "[1]; FIG. 3", "value": "higher than ranitidine treated pigs"}, {"measurement": "presence of anti-gastrin antibodies within the serum (ELISA)", "setting": "[2]; Gastrimmune-immunized mice", "value": "confirmed"}, {"measurement": "cross-reactivity of the antibodies raised", "setting": "[2]; mouse, in vivo", "value": "cross-reacted with both amidated and glycine-extended gastrin-17"}, {"measurement": "antigen binding capacity of serum antibody titers", "setting": "[2]; within 2 weeks of the initial immunization", "value": "> 10^−9 M"}]}
{"compound": "heptadecagastrin [Peptide G17]", "values": [{"measurement": "potency as stimulator of gastric acid secretion relative to histamine", "setting": "[3]", "value": 1500, "unit": "times"}]}
{"compound": "CN/C(=N/CCSCc1nc[nH]c1C)NC#N", "note": "[cimetidine]", "values": [{"measurement": "patients with healing of esophagitis, endoscopically determined (mean)", "setting": "[4]; [5]", "value": 48, "unit": "%"}, {"measurement": "patients with symptomatic relief of GERD (mean)", "setting": "[4]; [5]", "value": 61, "unit": "%"}, {"measurement": "efficacy in GERD patients at doses and durations proven effective in healing peptic ulcers", "setting": "[4]; GERD patients, peptic ulcer doses and durations", "value": "not effective in GERD"}]}
{"compound": "Cc1c(OCC(F)(F)F)ccnc1C[S+]([O-])c1nc2ccccc2[nH]1", "note": "(stereo not drawn) [lansoprazole]", "values": [{"measurement": "effectiveness in alleviating the symptoms of GERD esophagitis compared with histamine H2 blockers", "setting": "[4]; human, in vivo", "value": "more effective than histamine H2 blockers"}]}
